According to paper PMC8399443, “Synthesis, Biological Evaluation, and In Silico Modeling of N-Substituted Quinoxaline-2-Carboxamides” (Pharmaceuticals, 2021):
pIC50: −log10 of the molar value. ≈ marks a conversion by molar mass, not a printed value. Where “and” joins values, the source holds several entries; their conditions need not be identical. Equal entries are not always repeated. Where two headings read alike, the source gives them in different places.

Legend:
HepG2 cell line = assay: In vitro cytotoxicity, CellTiter 96 (MTS); type: cell-based; conditions: Homo sapiens, HepG2; cytotoxicity, 24 h incubation, CellTiter 96; read-out: HepG2 IC50
M. aurum = assay: In vitro antimycobacterial activity, MABA; type: cell-based, Mycobacterium aurum; conditions: Mycolicibacterium aurum, read-out: MIC M. aurum
M. smegmatis = assay: In vitro antimycobacterial activity, MABA; type: cell-based, Mycobacterium smegmatis; conditions: Mycolicibacterium smegmatis, read-out: MIC M. smeg
Mtb H37Ra = assay: In vitro antimycobacterial activity, Microplate Alamar Blue Assay (MABA); type: cell-based, Mycobacterium tuberculosis; conditions: for SI (selectivity index): IC50 HepG2 (µM)/MIC Mtb H37Ra (µM); for MIC: Mycobacterium tuberculosis, H37RA, read-out: MIC Mtb H37Ra; for MIC Mtb H37Ra: MABA, pH of testing medium 6.6

Compound	pIC50 (HepG2 cell line)	MIC (M. aurum; MABA) [µg/mL]	MIC (M. smegmatis; MABA) [µg/mL]	SI (selectivity index) (Mtb H37Ra)	MIC (Mtb H37Ra)	MIC (M. smegmatis)	MIC (M. aurum)	MIC Mtb H37Ra (Mtb H37Ra)
O=C(NCc1ccc(Cl)c(Cl)c1)c1cnc2ccccc2n1 [Compound 31]	4.17	≥ 500	≥ 500	2.80	7.81 µg/mL and 23.5 µM	–	–	–
O=C(Nc1ccccc1Cl)c1cnc2ccccc2n1 [Compound 12]	< 4.30	≥ 125	≥ 125	–	≥ 125 µg/mL	–	–	–
Cc1ccccc1CNC(=O)c1cnc2ccccc2n1 [Compound 23]	3.80	≥ 125	≥ 125	5.60	7.81 µg/mL and 28.2 µM	–	–	–
O=C(NC1CCCCC1)c1cnc2ccccc2n1 [Compound 6]	< 3.00	≥ 500	31.2	>8.17	31.2 µg/mL and 122 µM	122 µM	–	–
O=C(NCc1ccc(F)cc1F)c1cnc2ccccc2n1 [Compound 22]	< 4.60	≥ 500	≥ 500	–	≥ 500 µg/mL	–	–	–
CO[C@H]1/C=C/O[C@@]2(C)Oc3c(C)c(O)c4c(O)c(c(/C=N/N5CCN(C)CC5)c(O)c4c3C2=O)NC(=O)/C(C)=C\C=C\[C@H](C)[C@H](O)[C@@H](C)[C@@H](O)[C@@H](C)[C@H](OC(C)=O)[C@@H]1C [RIF, rifampicin, reference compound]	< 3.30	–	–	–	0.00313 µg/mL and 0.0038 µM	12.5 µg/mL	0.39 µg/mL	–
O=C(NCCc1ccccc1)c1cnc2ccccc2n1 [Compound 32, N-phenethylquinoxaline-2-carboxamide]	< 3.00	≥ 500	≥ 500	–	≥ 500 µg/mL	–	–	–
O=C(NCc1cccc(F)c1)c1cnc2ccccc2n1 [Compound 21]	3.61	≥ 500	≥ 500	8.92	7.81 µg/mL and 27.8 µM	–	–	–
O=C(Nc1cccc(Cl)c1)c1cnc2ccccc2n1 [Compound 13]	< 4.60	≥ 500	≥ 500	–	≥ 500 µg/mL	–	–	–
Cc1ccc(CNC(=O)c2cnc3ccccc3n2)cc1 [Compound 24]	4.06	≥ 250	≥ 250	3.11	7.81 µg/mL and 28.2 µM	–	–	–
O=C(NCc1cccc(C(F)(F)F)c1)c1cnc2ccccc2n1 [Compound 28]	4.31	≥ 500	250	4.12	3.91 µg/mL and 11.8 µM	–	–	3.91 (28) µg/mL
O=C(NCc1ccccc1)c1cnc2ccccc2n1 [Compound 15]	< 3.00	≥ 125	≥ 125	>17	15.6 µg/mL and 59.3 µM	–	–	15.625 (15) µg/mL
O=C(Nc1ccccc1)c1cnc2ccccc2n1 [Compound 1]	< 4.30	≥ 250	≥ 250	–	≥ 500 µg/mL	–	–	–
O=C(NCc1cccc(Cl)c1)c1cnc2ccccc2n1 [Compound 26]	3.85	31.2	31.2	5.34	7.81 µg/mL and 26.2 µM	105 µM	105 µM	–
O=C(NCc1ccc(Br)cc1)c1cnc2ccccc2n1 [Compound 27]	< 4.00	≥ 500	≥ 500	>4.4	7.81 µg/mL and 22.8 µM	–	–	–
O=C(Nc1ccccc1F)c1cnc2ccccc2n1 [Compound 7]	< 4.00	≥ 500	62.5	–	≥ 500 µg/mL	234 µM	–	–
O=C(Nc1ccc(F)cc1F)c1cnc2ccccc2n1 [Compound 11]	< 3.60	≥ 500	≥ 500	–	≥ 500 µg/mL	–	–	–
COc1ccc(OC)c(CNC(=O)c2cnc3ccccc3n2)c1 [Compound 18]	< 3.00	–	–	–	3.91 µg/mL and 12.1 µM	≥ 500 µg/mL	≥ 500 µg/mL	–

Compound	pIC50 (HepG2 cell line)	MIC (M. aurum; MABA) [µg/mL]	MIC (M. smegmatis; MABA) [µg/mL]	SI (selectivity index) (Mtb H37Ra)	MIC (Mtb H37Ra)	MIC (M. smegmatis)	MIC (M. aurum)	MIC Mtb H37Ra (Mtb H37Ra)
COc1cccc(CNC(=O)c2cnc3ccccc3n2)c1 [Compound 19]	< 3.00	–	–	>21.3	15.6 µg/mL and 47 µM	≥ 500 µg/mL	≥ 500 µg/mL	–
CN(C)c1ccc(NC(=O)c2cnc3ccccc3n2)cc1 [Compound 10]	< 3.60	≥ 500	≥ 500	–	≥ 500 µg/mL	–	–	–
COc1cc(NC(=O)c2cnc3ccccc3n2)cc(OC)c1 [Compound 4]	< 4.60	≥ 125	≥ 125	>0.12	62.5 µg/mL and 202 µM	–	–	–
COc1ccc(NC(=O)c2nccnc2C(=O)O)cc1 [C00007 R=4-OCH3, reference compound]	–	–	–	–	≥ 500 µg/mL	–	–	–
O=C(NCc1ccccc1Cl)c1cnc2ccccc2n1 [Compound 25]	3.28	–	–	–	15.6 µg/mL and 52.5 µM	≥ 500 µg/mL	≥ 500 µg/mL	–
COc1ccc(NC(=O)c2cnc3ccccc3n2)cc1 [Compound 5]	< 4.30	≥ 125	≥ 125	–	≥ 125 µg/mL	–	–	–
O=C(O)c1nccnc1C(=O)Nc1ccccc1 [C00007 R=H, reference compound]	–	–	–	–	≥ 500 µg/mL	–	–	–
NNC(=O)c1ccncc1 [INH, isoniazid, reference compound]	< 3.00	–	–	–	0.25 µg/mL and 1.82 µM	15.6 µg/mL	3.91 µg/mL	–
O=C(Nc1cccc(O)c1)c1cnc2ccccc2n1 [Compound 2]	< 3.60	≥ 125	≥ 125	>4.20	15.6 µg/mL and 58.9 µM	–	–	–
O=C(O)c1nccnc1C(=O)Nc1cccc(C(F)(F)F)c1 [C00007 R=3-CF3, reference compound]	–	–	–	–	250 µg/mL (≈ 803 µM)	–	–	–
O=C(NCc1cccc(O)c1)c1cnc2ccccc2n1 [Compound 16]	3.22	≥ 500	62.5	5.40	31.2 µg/mL and 112 µM	237 µM	–	–
O=C(NCCCc1ccccc1)c1cnc2ccccc2n1 [Compound 33, N-phenylpropylquinoxaline-2-carboxamide]	3.84	≥ 500	≥ 500	2.7	15.6 µg/mL and 53.6 µM	–	–	–
O=C(Nc1cccc(F)c1)c1cnc2ccccc2n1 [Compound 8]	< 4.00	≥ 500	≥ 500	–	250 µg/mL (≈ 935 µM)	–	–	–
O=C(NCc1ccc(Cl)cc1Cl)c1cnc2ccccc2n1 [Compound 30]	< 4.00	≥ 125	≥ 125	–	≥ 500 µg/mL	–	–	–
O=C(Nc1ccc(F)cc1)c1cnc2ccccc2n1 [Compound 9]	< 4.00	≥ 500	≥ 500	>1.71	15.6 µg/mL and 58.5 µM	–	–	–
COc1ccc(CNC(=O)c2cnc3ccccc3n2)cc1 [Compound 20]	3.68	–	–	16.1	3.91 µg/mL and 11.8 µM	≥ 250 µg/mL	125 µg/mL	3.91 (20) µg/mL
O=C(Nc1cccc(C(F)(F)F)c1)c1cnc2ccccc2n1 [Compound 14]	< 4.60	≥ 125	≥ 125	–	≥ 500 µg/mL	–	–	–
O=C(NCc1ccc(O)cc1)c1cnc2ccccc2n1 [Compound 17]	< 3.60	500	≥ 500	>1.1	62.5 µg/mL and 224 µM	–	–	–
